Values quoted from earlier work, collected in patent US20100047341A1, “COMBINED PREPARATION FOR THE TREATMENT OF CARDIOVASCULAR DISEASES BASED ON CHRONOTHERAPY THEORY” (HANALL PHARMACEUTICAL CO., LTD., priority 2006, published 2010).

Row | time to maximum level in blood (losartan itself as active form released from the liver to blood) | time to maximum plasma concentration (after the conversion of losartan in the liver) [h] | Structure (SMILES)
1 | an hour | – | CCCCc1nc(Cl)c(CO)n1Cc1ccc(-c2ccccc2-c2nn[nH]n2)cc1 [Losartan, 2-butyl-4chloro-1-[p-(o-1H-tetrazol-5-ylphenyl)benzyl]imidazole-5-methanol]
2 | – | 3 to 4 | CCCCc1nc(Cl)c(C(=O)O)n1Cc1ccc(-c2ccccc2-c2nn[nH]n2)cc1 [losartan carboxylate]
